# Experimental data as given in ChEMBL document CHEMBL1141856, “Iridoid glycosides of Leonurus persicus” (J Nat Prod, 1999).
# The source made the active and inactive calls. No cut-off for these calls is given here.
# Test system: Staphylococcus epidermidis
# Experiment: Antimicrobial activity against Staphylococcus epidermidis at 50 ug/spot by agar overlay method
# Assay type: functional, organism-based
smiles,measurement,value
COc1cc(/C=C/C(=O)O[C@H]2[C@H](O[C@@H]3O[C@@H](C)[C@H](O)[C@@H](O)[C@H]3O)[C@@H](O)[C@H](OCCc3ccc(O)c(O)c3)O[C@@H]2CO)ccc1O,Activity,Active
